Like-named read-outs stand apart in the source and are kept apart here.
Molecular target: Arf6 (Homo sapiens (Human), UniProt P62330)
Test: Fluorometric assay for Arf6 nucleotide exchange catalyzed by ARNO Sec7 domain (GTP-BODIPY FL)
Format: biochemical
Method: FIGS. 1A-1D: Fluorometric high throughput assay for Arf6 nucleotide exchange catalyzed by ARNO Sec7 domain. FIG. 1A: Principle of the assay. FIG. 1B: SDS-PAGE analysis of N-terminally His-tagged Arf6(14-175) and ARNO(50-255) purified from the E. coli cultures by immobilized metal affinity chromatography. FIG. 1C: Correlation between signal intensity and ARNO concentration. The assay was performed using 50 mM Tris-HCl, pH 7.5, 1 mM MgCl2, 0.01% TX-100, 1% DMSO, 50 nM GTP-BODIPY FL, supplemented with ARNO-Sec7 at indicated concentrations in the absence or in the presence of 0.2 μM Arf6-GDP. Fluorescence intensities were monitored using a Synergy 4 plate reader (BioTek) at the excitation and emission wavelengths of 490 nm and 520 nm, respectively. FIG. 1D: Time course of apparent inhibitory potency of GDP. The assay was performed in automated mode using a Matrix PlateMate liquid handler.
The primary biochemical assay uses a fluorometric assay for monitoring the replacement of bound nucleotide with a fluorogenic GTP derivative bearing a BODIPY FL moiety, allowing for the identification of compounds that can inhibit this exchange (see FIG. 1A). In certain embodiments, the methods disclosed herein may exploit the reduction of intramolecular fluorescence quenching of the modified nucleotide upon its binding to the target protein (see, e.g., McEwen D P, Gee K R, Kang H C, Neubig R R. Fluorescent BODIPY-GTP analogs: real-time measurement of nucleotide binding to G proteins. Anal Biochem. 2001 Apr. 1; 291(1): 109-17).
The fluorometric assay formatted for 96-well microtiter plates has passed quality control based on the following criteria: i) S/B ratio of 4-fold and Z′-factor of 0.61; ii) linear correlation between signal intensity and ARNO concentration (see FIG. 1C); iii) sufficiently reproducible inhibitory effects of the reference inhibitor GDP for assay durations up to at least 1 hour (see FIG. 1D); and iv) lack of apparent fluorescence quenchers among 400 randomly selected compounds. The assay is amenable to automation with a throughput of approximately 5,000 data points per 8 hours.

[1] = 20 nM Arf6 assay, read-out: IC50 (μM) 20 nM Arf6
[2] = 200 nM Arf6 assay, read-out: IC50 (μM) 200 nM Arf6

Arf6, sequence (P62330 14-175): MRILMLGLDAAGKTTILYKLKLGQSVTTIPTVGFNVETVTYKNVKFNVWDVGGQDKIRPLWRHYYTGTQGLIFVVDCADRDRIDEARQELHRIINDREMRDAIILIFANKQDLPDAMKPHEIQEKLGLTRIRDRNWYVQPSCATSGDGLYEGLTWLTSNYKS

SMILES | IC50 [1] | IC50 [2]
CCC(=O)Nc1cccc(-c2cc(=O)n3nc(C(F)(F)F)c(-c4ccc(Cl)cc4)c3[nH]2)c1 [Compound 61] | 3.3 µM | 
O=c1cc(-c2ccccc2Br)[nH]c2c(-c3ccc(Cl)cc3)c(C(F)(F)F)nn12 [Compound 62] | 3.3 µM | 
O=c1cc(-c2ccc([N+](=O)[O-])cc2)[nH]c2c(-c3ccc(Cl)cc3)c(CC3CCOCC3)nn12 [Compound 63] | 3.6 µM | 
COc1ccc(Cc2nn3c(=O)cc(-c4ccc([N+](=O)[O-])cc4)[nH]c3c2-c2ccccc2)cc1 [Compound 64] |  | 3.6 µM
NC(=O)c1ccc(-c2cc(=O)n3nc(Cc4ccccc4)c(-c4ccc(Cl)cc4)c3[nH]2)cc1 [Compound 66] | 3.7 µM | 2.8 µM
CC(=O)Nc1ccc(-c2cc(=O)n3nc(C(F)(F)F)c(-c4ccc(Cl)cc4)c3[nH]2)cc1 [Compound 67] | 3.7 µM | 
Cc1nn2c(=O)cc(-c3ccc(NS(=O)(=O)Cc4ccccc4)cc3)[nH]c2c1-c1ccc(Cl)cc1 [Compound 68] | 3.8 µM | 
Cc1nc2c(=O)[nH]c(-c3ccc([N+](=O)[O-])cc3)nn2c1-c1ccc(Cl)cc1 [Compound 69] | 4 µM | 
Cc1nn2c(=O)cc(-c3cccc(-c4ccncc4)c3)[nH]c2c1-c1ccc(Cl)cc1 [Compound 70] | 4.1 µM | 
COC(=O)c1ccc(-c2cc(=O)n3nc(C4CC4)c(-c4ccc(Cl)cc4)c3[nH]2)cc1 [Compound 71] | 4.1 µM | 
O=c1cc(-c2ccc([N+](=O)[O-])cc2)[nH]c2c(-c3ccccc3)c(C(F)(F)F)nn12 [Compound 72] | 4.2 µM | 3.8 µM
Cc1nn2c(=O)cc(-c3ccc([N+](=O)[O-])cc3)[nH]c2c1-c1ccc(Cl)c(F)c1 [Compound 73] | 4.2 µM | 
CC(=O)Nc1cccc(-c2cc(=O)n3nc(C(F)(F)F)c(-c4ccc(Cl)cc4)c3[nH]2)c1 [Compound 74] | 4.3 µM | 
COCC(=O)Nc1ccc(-c2cc(=O)n3nc(C(F)(F)F)c(-c4ccc(Cl)cc4)c3[nH]2)cc1 [Compound 75] | 4.4 µM | 
Cc1nn2c(=O)cc(-c3ccc([N+](=O)[O-])cc3)[nH]c2c1-c1ccc(Cl)cc1Cl [Compound 76] | 4.5 µM | 
O=c1cc(-c2ccc([N+](=O)[O-])cc2)[nH]c2c(-c3ccc(Cl)cc3)c(C3CCOCC3)nn12 [Compound 77] | 5.1 µM | 
Nc1ccc(-c2cc(=O)n3nc(C(F)(F)F)c(-c4ccc(Cl)cc4)c3[nH]2)cc1 [Compound 78] | 5.2 µM | 
N#Cc1cccc(-c2cc(=O)n3nc(C4CC4)c(-c4ccc(Cl)cc4)c3[nH]2)c1 [Compound 79] | 5.5 µM | 
O=c1cc(-c2ccc([N+](=O)[O-])cc2)[nH]c2c(-c3ccc(Cl)cc3)c(CN3CCOCC3)nn12 [Compound 80] | 5.9 µM | 
Cc1nn2c(=O)cc(-c3ccc([N+](=O)[O-])cc3)[nH]c2c1Cc1ccc(Cl)cc1 [Compound 81] | 6 µM | 
CC(C)(C)c1nn2c(=O)cc(-c3ccccn3)[nH]c2c1-c1ccc(Cl)cc1 [Compound 82] | 6 µM | 
COc1ccc(-c2cc(=O)n3nc(Cc4ccccc4)c(-c4ccc(Cl)cc4)c3[nH]2)cc1 [Compound 83] |  | 6.2 µM
CC(C)(C)c1nn2c(=O)cc(-c3cccnc3)[nH]c2c1-c1ccc(Cl)cc1 [Compound 84] | 6.4 µM | 
CC(C)(C)c1nn2c(=O)cc(-c3cccc(C(N)=O)c3)[nH]c2c1-c1ccc(Cl)cc1 [Compound 85] | 6.6 µM | 
CC(C)(C)c1nn2c(=O)cc(-c3cccc(C(=O)O)c3)[nH]c2c1-c1ccc(Cl)cc1 [Compound 86] | 6.6 µM | 
CC(C)(C)c1nn2c(=O)cc(-c3cccc(S(C)(=O)=O)c3)[nH]c2c1-c1ccc(Cl)cc1 [Compound 87] | 6.7 µM | 
Nc1cccc(-c2cc(=O)n3nc(C(F)(F)F)c(-c4ccc(Cl)cc4)c3[nH]2)c1 [Compound 88] | 7 µM | 

SMILES | IC50 [1] | IC50 [2]
O=c1cc(Cc2ccccc2)[nH]c2c(-c3ccccc3)c(-c3ccccc3)nn12 [Compound 89] |  | 7 µM
O=c1cc(-c2ccc([N+](=O)[O-])cc2)[nH]c2c(-c3ccc(Cl)cc3)c(CO)nn12 [Compound 90] | 7.8 µM | 
CS(=O)(=O)c1ccc(-c2cc(=O)n3nc(C4CC4)c(-c4ccc(Cl)cc4)c3[nH]2)cc1 [Compound 91] | 7.9 µM | 
O=C(O)c1ccccc1-c1cc(=O)n2nc(C(F)(F)F)c(-c3ccc(Cl)cc3)c2[nH]1 [Compound 92] | 8.1 µM | 
Cc1nn2c(=O)cc(-c3ccc(F)cc3)[nH]c2c1-c1ccc(Cl)cc1 [Compound 93] | 8.2 µM | 
Cc1nn2c(=O)cc(-c3ccc([N+](=O)[O-])cc3)[nH]c2c1-c1ccc(S(C)(=O)=O)cc1 [Compound 94] | 8.8 µM | 
O=c1cc(-c2ccccc2)[nH]c2c(-c3ccccc3)c(Cc3ccccc3)nn12 [Compound 95] |  | 9.4 µM
CCS(=O)(=O)Nc1ccc(-c2cc(=O)n3nc(C)c(-c4ccc(Cl)cc4)c3[nH]2)cc1 [Compound 96] | 10 µM | 
CCNC(=O)Nc1ccc(-c2cc(=O)n3nc(C)c(-c4ccc(Cl)cc4)c3[nH]2)cc1 [Compound 97] | 11 µM | 
Cc1c(Cc2ccccc2)nn2c(=O)cc(-c3ccc([N+](=O)[O-])cc3)[nH]c12 [Compound 98] | 11 µM | 
O=c1cc(Cc2ccccc2)[nH]c2c(-c3ccc(Cl)cc3)c(Cc3ccccc3)nn12 [Compound 99] |  | 11 µM
O=[N+]([O-])c1ccc(C2=CC(O)n3nc(-c4cccc(Cl)c4)cc3N2)cc1 (stereo not shown) [Compound 100] | 13 µM | 10 µM
Cc1nn2c(=O)cc(-c3ccc([N+](=O)[O-])cc3)[nH]c2c1-c1ccc(OC(F)(F)F)cc1 [Compound 101] | 13 µM | 
O=c1cc(Cc2cccnc2)[nH]c2c(-c3ccc(Cl)cc3)c(C(F)(F)F)nn12 [Compound 102] | 14 µM | 17 µM
Cc1nn2c(=O)cc(C3CCCCC3)[nH]c2c1-c1ccc(Cl)cc1 [Compound 103] | 14 µM | 
O=c1cc(-c2ccc([N+](=O)[O-])cc2)[nH]c2c(-c3ccc(Cl)cc3)c(C3CC3)nn12 [Compound 104] | 14 µM | 
Cc1nn2c(=O)cc(-c3ccc(Cl)cc3)[nH]c2c1-c1ccc(F)cc1 [Compound 105] |  | 15 µM
Cc1nn2c(=O)cc(C3CCCC3)[nH]c2c1-c1ccc(Cl)cc1 [Compound 106] | 16 µM | 
O=C(O)c1ccc(-c2cc(=O)n3nc(C4CC4)c(-c4ccc(Cl)cc4)c3[nH]2)cc1 [Compound 107] | 16 µM | 
N#Cc1ccc(-c2cc(=O)c3nc(C4CC4)c(-c4ccc(Cl)cc4)n3[nH]2)cc1 [Compound 108] | 16 µM | 
COc1ccc(-c2c(C)nn3c(=O)cc(-c4ccc([N+](=O)[O-])cc4)[nH]c23)cc1 [Compound 109] |  | 17 µM
Cc1nn2c(=O)cc(-c3ccc([N+](=O)[O-])cc3)[nH]c2c1C1CCCC1 [Compound 110] | 19 µM | 
O=C(Nc1cccc(-c2cc(=O)n3nc(C(F)(F)F)c(-c4ccc(Cl)cc4)c3[nH]2)c1)c1ccccc1 [Compound 111] | 20 µM | 
N#Cc1ccc(-c2cc(=O)n3nc(C4CCOCC4)c(-c4ccc(Cl)cc4)c3[nH]2)cc1 [Compound 112] | 20 µM | 
CCC(C)(C)C1CCc2c(sc3c2C(=O)NC(c2cc(OC)c(O)c([N+](=O)[O-])c2)N3)C1 (stereo not shown) [Compound 113] | 0.56 µM | 
N#Cc1c(=O)n(-c2ccc(Cl)cc2)nc2c(=O)n(N)c(-c3ccccc3Cl)cc12 [Compound 114] | 1.1 µM | 
Cc1cccc(N2C(=O)/C(=C/c3cc([N+](=O)[O-])cc(Br)c3O)SC2=S)c1 [Compound 115] |  | 1.1 µM
